Measurements from a compilation of properties of binary mixtures (doi:10.1021/acs.jced.9b01103).

Test: xn = mol fraction of the nth substance listed
Details: 96.7 kPa

CS(C)=O + CC(=O)[O-].CCCC[n+]1ccn(C)c1
x2 = 0
Details	viscosity [mPa·s]
303.15 K	1.8
308.15 K	1.665
313.15 K	1.529
318.15 K	1.407
323.15 K	1.304
328.15 K	1.211
333.15 K	1.127
343.15 K	0.989
348.15 K	0.931

CC(=O)[O-].CCCC[n+]1ccn(C)c1 + CS(C)=O
viscosity [mPa·s]
Details	303.15 K	308.15 K	313.15 K	318.15 K	323.15 K	328.15 K	333.15 K	338.15 K	343.15 K	348.15 K
x1 = 0.21	6.44	–	4.98	–	3.81	3.39	3.08	2.77	–	2.3
x1 = 0.285	9.15	7.85	6.63	5.91	–	–	–	3.69	3.3	3.01
x1 = 0.369	13.34	11.31	9.67	8.25	7.12	6.3	5.48	4.89	–	3.97
x1 = 0.478	22.7	18	14.83	12.54	10.64	9.15	7.97	6.92	6.06	5.44
x1 = 0.606	51.5	39.2	30.3	–	19.2	–	12.9	10.5	8.81	7.34
x1 = 0.789	98.8	74.1	56.1	42.7	33.2	26.7	21.7	–	15.07	12.69
x1 = 0.884	131.1	96.5	75.2	–	47.5	39	32.8	28.1	–	–
x1 = 1	253	180.6	133.1	102	79.4	62.1	50.2	40.7	–	28.4
